The source of these data is patent US9150554B2, “Fused ring inhibitors of hepatitis C” (Presidio Pharmaceuticals, Inc., priority 2009, dated 2015).

Molecules are shown by their SMILES.

The test deals with HCV 1b_Huh-Luc/Neo-ET cell line persistently expressing a bicistronic genotype 1b replicon in Huh 7 cells. Briefly: HCV replicon assay, luciferase enzyme activity readout. Format: cell-based. As to conditions: Hepatitis C virus, 72 h incubation, average EC50 range, read-out: Inhibition of HCV genotype 1b. On the procedure:
Biological activity of the compounds of the invention was determined using an HCV replicon assay. The HCV 1b_Huh-Luc/Neo-ET cell line persistently expressing a bicistronic genotype 1b replicon in Huh 7 cells was obtained from ReBLikon GMBH. This cell line was used to test compound inhibition using luciferase enzyme activity readout as a measurement of compound inhibition of replicon levels.
On Day 1 (the day after plating cells), each compound is added in triplicate to the cells. Plates are incubated for 72 h prior to determining luciferase levels. Enzyme activity was measured using a Bright-Glo Kit (cat. number E2620) manufactured by Promega Corporation. The following equation was used to generate a percent control value for each compound. % Control=(Compound Luciferase Level/Control Luciferase Level)*100
The EC50 value was determined using GraphPad Prism and the following equation: Y=Bottom asymptote+(Top asymptote−Bottom asymptote)/(1+10^((Log EC50−X)*HillSlope))
EC50 values of compounds are determined several times in the replicon assay to generate average EC50 values. […]
For the compound `COC(=O)N[C@H](C(=O)N1CCC[C@H]1c1ncc(-c2ccc3c(c2)Cc2ccc(-c4cnc([C@@H]5CCCN5C(=O)[C@@H](NC(=O)OC)[C@@H](C)OC)[nH]4)cc2O3)[nH]1)[C@@H](C)OC` [Compound 30], the EC50 was below 1 nM.
The value for `CC[C@H](C)[C@H](NC(=O)OC)C(=O)N1CCC[C@H]1c1ncc(-c2ccc3c(c2)Cc2ccc(-c4cnc([C@@H]5CCCN5C(=O)[C@@H](NC(=O)OC)[C@@H](C)CC)[nH]4)cc2O3)[nH]1` [Compound 31] was below 1 nM; that for `COC(=O)N[C@H](C(=O)N1CCC[C@H]1c1ncc(-c2ccc3c(c2)Cc2ccc(-c4cnc([C@@H]5CCCN5C(=O)[C@@H](NC(=O)OC)C5CCCC5)[nH]4)cc2O3)[nH]1)C1CCCC1` [Compound 32] was below 1 nM.
The value for `COC(=O)N[C@H](C(=O)N1CCC[C@H]1c1ncc(-c2ccc3c(c2)Oc2ccc(-c4cnc([C@@H]5CCCN5C(=O)[C@@H](NC(=O)OC)C5CCCC5)[nH]4)cc2O3)[nH]1)C1CCCC1` [Compound 33] was below 1 nM; that for `COC(=O)N[C@H](C(=O)N1CCC[C@H]1c1ncc(-c2ccc3c(c2)Oc2ccc(-c4cnc([C@@H]5CCCN5C(=O)[C@@H](NC(=O)OC)[C@@H](C)OC)[nH]4)cc2O3)[nH]1)[C@@H](C)OC` [Compound 34] was below 1 nM.
To `COC(=O)N[C@H](C(=O)N1CCC[C@H]1c1ncc(-c2ccc3c(c2)Oc2ccc(-c4cnc([C@@H]5CCCN5C(=O)[C@@H](NC(=O)OC)C5CCOCC5)[nH]4)cc2O3)[nH]1)C1CCOCC1` [Compound 35] belongs below 1 nM; to `COC(=O)N[C@H](C(=O)N1CSC[C@H]1c1ncc(-c2ccc3c(c2)Oc2ccc(-c4cnc([C@@H]5CSCN5C(=O)[C@@H](NC(=O)OC)C(C)C)[nH]4)cc2O3)[nH]1)C(C)C` [Compound 36], below 1 nM.
Consider `COC(=O)N[C@@H](C(=O)N1CSC[C@H]1c1ncc(-c2ccc3c(c2)Oc2ccc(-c4cnc([C@@H]5CSCN5C(=O)[C@H](NC(=O)OC)c5ccccc5)[nH]4)cc2O3)[nH]1)c1ccccc1` [Compound 37], for which the EC50 was below 1 nM.
The value for `COC(=O)N[C@@H](C(=O)N[C@@H](C)c1ncc(-c2ccc3c(c2)Oc2ccc(-c4cnc([C@H](C)NC(=O)[C@H](NC(=O)OC)c5ccccc5)[nH]4)cc2O3)[nH]1)c1ccccc1` [Compound 38] was below 1 nM.
The value for `COC(=O)N[C@H](C(=O)N[C@@H](C)c1ncc(-c2ccc3c(c2)Oc2ccc(-c4cnc([C@H](C)NC(=O)[C@@H](NC(=O)OC)C(C)C)[nH]4)cc2O3)[nH]1)C(C)C` [Compound 39] was below 1 nM.
To `COC(=O)N[C@H](C(=O)N1CCC[C@H]1c1ncc(-c2ccc3c(c2)Cc2cc(F)c(-c4cnc([C@@H]5CCCN5C(=O)[C@@H](NC(=O)OC)[C@@H](C)OC)[nH]4)cc2O3)[nH]1)[C@@H](C)OC` [Compound 40] belongs below 1 nM; to `CC[C@H](C)[C@H](NC(=O)OC)C(=O)N1CCC[C@H]1c1ncc(-c2ccc3c(c2)Cc2cc(F)c(-c4cnc([C@@H]5CCCN5C(=O)[C@@H](NC(=O)OC)[C@@H](C)OC)[nH]4)cc2O3)[nH]1` [Compound 41], below 1 nM.
With `COC(=O)N[C@H](C(=O)N1CCC[C@H]1c1ncc(-c2ccc3c(c2)Cc2cc(F)c(-c4cnc([C@@H]5CCCN5C(=O)[C@@H](NC(=O)OC)[C@@H](C)OC)[nH]4)cc2O3)[nH]1)C1CCOCC1` [Compound 42], the EC50 was below 1 nM.
The value for `COC[C@H](NC(=O)OC)C(=O)N1CCC[C@H]1c1ncc(-c2ccc3c(c2)Cc2cc(F)c(-c4cnc([C@@H]5CCCN5C(=O)[C@@H](NC(=O)OC)[C@@H](C)OC)[nH]4)cc2O3)[nH]1` [Compound 43] was below 1 nM.
The value for `COC(=O)N[C@H](C(=O)N1CCC[C@H]1c1ncc(-c2cc3c(cc2F)Cc2cc(-c4cnc([C@@H]5CCCN5C(=O)[C@@H](NC(=O)OC)C5CCOCC5)[nH]4)ccc2O3)[nH]1)C(C)C` [Compound 44] was below 1 nM; that for `COC[C@H](NC(=O)OC)C(=O)N1CCC[C@H]1c1ncc(-c2ccc3c(c2)Cc2cc(F)c(-c4cnc([C@@H]5CCCN5C(=O)[C@@H](NC(=O)OC)C(C)C)[nH]4)cc2O3)[nH]1` [Compound 45] was below 1 nM.
